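Assay format: 96-well plates, 48-hour exposure. GI50 marks 50% less growth. At the TGI there is no net growth.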 Some results are limits rather than exact numbers.

These results are taken from PubChem BioAssay (NCI).

The assay concerns MDA-MB-468 breast. Description: NCI anticancer screen, dose series, 48 h.
As for `Cc1cc(C)c(O)c(CNCCCCCCNCc2cc(C)cc(C)c2O)c1`, the GI50 was 1.6 µM and the TGI amounted to 3.12 µM.

On to `CC(=O)Nc1nc(SCc2ccccc2)c2ncn(C(C)=O)c2n1`, for which the GI50 is 24.8 µM and the TGI was > 100 µM.

Consider `CCCCCCCCCCC(C[N+](C)(C)C/C=C/c1ccccc1)C(O)c1ccccc1` (stereo not given), for which the GI50 was 1.37 µM and the TGI was determined as 3.06 µM.

Consider `COc1ccc(/C=C\c2cc(OC)c(OC)c(OC)c2)cc1OC(=O)C(N)CCC(=O)O` (stereo not given), for which the TGI was > 100 µM.

As to `CCCCCCCCCNCCCCCCCCC`, the GI50 was 1.77 µM and the TGI was determined as 3.22 µM.

As to `Nc1ccc(C(=O)c2ccc(N)c(Br)c2)cc1Br`, the GI50 was 0.248 µM and the TGI was 0.709 µM.

As to `CCCc1ccc(S(=O)(=O)N[C@H]2CC[C@H]3[C@@H]4CCc5cc(O)ccc5[C@H]4CC[C@]23C)cc1`, the GI50 was 2.32 µM and the TGI stood at 9.51 µM.

`C/C=C(\C)C(=O)N[C@H]1[C@@H](OC(C)=O)C[C@]2(C)C3CC[C@@]4(C)C(CC[C@@H]4C(C)N(C)C)C3CCC2[C@H]1O` (stereo not given in full): the GI50 was 2.02 µM and the TGI was 9.67 µM.

Take `CC(=O)Nc1cccc(-n2cnc3cc(-c4ccc(O)cc4)ccc32)c1`: the GI50 was 0.259 µM and the TGI amounted to 0.65 µM.

For `CC1(C)NCCC[C@]2(C)[C@H]3C=CC4=C5C[C@](C)(CO)CC[C@]5(C)CC[C@@]4(C)[C@]3(C)CC[C@@H]12`, the GI50 was 10.4 µM and the TGI worked out at 24 µM.

As to `COc1ccccc1N1CCN(C2=NN=C(c3cccc(Cl)c3)c3ccccc3C2)CC1`, the GI50 was 0.382 µM and the TGI is > 100 µM.

With `COc1cc(NC(=O)c2cc(OC)c3ccn(C)c3c2)cc2c1C[C@]1(C)CC[C@@H](O)C(C)(C)[C@H]1O2`, the GI50 is 6.61 µM and the TGI was > 100 µM.

With `CCC1=C[C@@H]2CN(C1)Cc1c([nH]c3ccccc13)[C@@](C(=O)OC)(c1cc3c(cc1OC)N(C=O)[C@H]1[C@@](O)(C(=O)OC)[C@H](OC(C)=O)[C@]4(CC)[C@@H]5C[C@@H]5CN5CC[C@]31[C@@H]54)C2`, the GI50 is < 0.000625 µM and the TGI is > 6.25 µM.

Consider `CCN(CC)CCOc1ccc(Nc2ncc3cc(-c4ccc(O)cc4)c(=O)n(C)c3n2)cc1`, for which the GI50 is 3.9 µM and the TGI amounted to 24.2 µM.

In the case of `Nc1nc(Nc2ccc3c(c2)CC[C@@H](N2CCCC2)CC3)nn1-c1cc2c(nn1)-c1ccccc1CCC2`, the GI50 was 1.75 µM and the TGI was found to be 3.39 µM.

Regarding `O=[N+]([O-])c1ccc(-c2nc(N(CCO)CCO)c3ccccc3n2)o1`, the GI50 was 0.0553 µM and the TGI was 0.195 µM.

For `Fc1ccc(Oc2nccc(-c3c(-c4ccc(F)cc4)ncn3C3CCNCC3)n2)cc1`, the GI50 is 4.7 µM and the TGI is > 24 µM.

Regarding `CC([C@H]1CCC2C3CCC4C[C@@H](NC=O)CC[C@]4(C)C3CC[C@@]21C)N(C)C` (stereo not given in full), the GI50 is 1.42 µM and the TGI is 3.73 µM.

For `COc1cc(Cl)cc(-c2nn(C(=O)NCCN3CCN(C)CC3)cc2-c2ccncc2)c1`, the GI50 is 10.5 µM and the TGI amounted to 49.9 µM.

`c1ccc2[nH]c(SSc3nc4ncncc4[nH]3)nc2c1`: the GI50 is 0.232 µM and the TGI is > 76.5 µM.

As for `c1ccc(C(=NNc2nc3ccccc3o2)c2ccccn2)nc1`, the GI50 is 0.0285 µM and the TGI amounted to 0.196 µM.

As for `COc1ccc2c(c1)nc(N)c1c3cc(OC)c(OC)cc3cn21`, the GI50 was 0.0339 µM and the TGI was 12.5 µM.

On to `O=C(Nc1ccc(-n2cc(-c3ccncc3)c(-c3ccc(O)c(Cl)c3)n2)cc1)c1cc(Cl)cc(Cl)c1`, for which the GI50 is 3.17 µM and the TGI was > 32.5 µM.

For `COc1c(C)c2c(c(O)c1C/C=C(\C)CCC(=O)OCCN1CCOCC1)C(=O)OC2`, the GI50 is 0.421 µM and the TGI is > 100 µM.

Take `CCN1C(=O)N(CC)C2C1NN=c1s/c(=C3\C(=O)N(CC(C)C)c4ccccc43)c(=O)n12` (stereo not given): the GI50 is 0.351 µM and the TGI stood at 15.9 µM.

Consider `Cc1ccccc1CN1CC2=C(CCN(Cc3ccccc3)C2=O)N2CCN=C12`, for which the GI50 was 0.773 µM and the TGI is 6.83 µM.

For `O=C(Nc1ccc(-n2cc(-c3ccncc3)c(-c3ccc(Cl)c(O)c3)n2)cc1)Nc1cc(C(F)(F)F)cc(C(F)(F)F)c1`, the GI50 is 1.79 µM and the TGI came to 5.04 µM.

Consider `O=C(N/N=C\c1ccc(F)cc1)c1ccc2nc(-c3ccc(Br)cc3)[nH]c2c1`, for which the GI50 was 1.98 µM and the TGI was determined as 3.99 µM.

As for `COc1ccc(/C=C2\CN(C(=O)C(Cl)Cl)C/C(=C\c3ccc(OC)c(OC)c3)C2=O)cc1OC`, the GI50 was 0.224 µM and the TGI turned out to be 0.621 µM.

For `O=C(NC1CC1)c1ccc(-c2nc3ccc4[nH]ncc4c3c3c2CCCC3)cc1`, the GI50 is 1.5 µM and the TGI amounted to 7.14 µM.

Turning to `CCCCCNC(=O)[C@@H]1CCCN2C(=O)CC[C@H](NC(=O)[C@H](Cc3ccc(OP(=O)(O)O)cc3)NC(C)=O)C(=O)N12`, the GI50 is > 25 µM and the TGI was > 25 µM.

Regarding `N=C1c2nc3n(c2C(=O)c2nc4n(c21)CCCC4)CCCC3`, the GI50 is 8.95 µM and the TGI stood at 53.4 µM.

With `C=C1CC[C@@]2(C#N)[C@H]3[C@H](CC[C@@H]2C)[C@@H](C)C[C@@H](CC(C)(C)C#N)[C@H]13`, the GI50 was 2.79 µM and the TGI came to 25.9 µM.
